Where a name gives a salt, the structure may show the parent alone.

For one experiment, the target named is mouse TAAR1 (Mus musculus (Mouse), UniProt Q923Y8). Description: Radioligand binding assay on mouse TAAR1. Particulars: mouse TAAR1, membranes of stably transfected HEK-293 cells; first value of cell mouse/rat. As to the method: (§1) Construction of TAAR Expression Plasmids and Stably Transfected Cell Lines
(§2) For the construction of expression plasmids the coding sequences of human, rat and mouse TAAR 1 were amplified from genomic DNA essentially as described by Lindemann et al.. The Expand High Fidelity PCR System (Roche Diagnostics) was used with 1.5 mM Mg^2+ and purified PCR products were cloned into pCR2.1-TOPO cloning vector (Invitrogen) following the instructions of the manufacturer. PCR products were subcloned into the pIRESneo2 vector (BD Clontech, Palo Alto, Calif.), and expression vectors were sequence verified before introduction in cell lines.
(§3) HEK293 cells (ATCC # CRL-1573) were cultured essentially as described by Lindemann et al. (2005). For the generation of stably transfected cell lines HEK293 cells were transfected with the pIRESneo2 expression plasmids containing the TAAR coding sequences (described above) with Lipofectamine 2000 (Invitrogen) according to the instructions of the manufacturer, and 24 hrs post transfection the culture medium was supplemented with 1 mg/ml G418 (Sigma, Buchs, Switzerland). After a culture period of about 10 d clones were isolated, expanded and tested for responsiveness to trace amines (all compounds purchased from Sigma) with the cAMP Biotrak Enzyme immunoassay (EIA) System (Amersham) following the non-acetylation EIA procedure provided by the manufacturer.
Radioligand Binding Assay on Mouse TAAR1
(§4) Membrane Preparation and Radioligand Binding.
(§5) HEK-293 cells stably expressing mouse TAAR1 were maintained at 37° C. and 5% CO2 in DMEM high glucose medium, containing fetal calf serum (10%, heat inactivated for 30 min at 56° C.), penicillin/streptomycin (1%), and 375 μg/ml geneticin (Gibco). Cells were released from culture flasks using trypsin/EDTA, harvested, washed twice with ice-cold PBS (without Ca^2+ and Mg^2+), pelleted at 1'000 rpm for 5 min at 4° C., frozen and stored at −80° C. Frozen pellets were suspended in 20 ml HEPES-NaOH (20 mM, pH 7.4) containing 10 mM EDTA and homogenized with a Polytron (PT 6000, Kinematica) at 14'000 rpm for 20 s. The homogenate was centrifuged at 48'000×g for 30 min at 4° C. Subsequently, the supernatant was removed and discarded, and the pellet resuspended in 20 ml HEPES-NaOH (20 mM, pH 7.4) containing 0.1 mM EDTA using the Polytron (20 s at 14'000 rpm). This procedure was repeated and the final pellet resuspended in HEPES-NaOH containing 0.1 mM EDTA and homogenized using the Polytron. Typically, aliquots of 2 ml membrane portions were stored at −80° C. With each new membrane batch the dissociation constant (Kd) was determined via a saturation curve. The TAAR1 radioligand ^3[H]-(S)-4-[(ethyl-phenyl-amino)-methyl]-4,5-dihydro-oxazol-2-ylamine (described in WO 2008/098857) was used at a concentration equal to the calculated Kd value, that was usually around 0.7 nM, resulting in the binding of approximately 0.5% of the radioligand and a specific binding representing approximately 70% of the total binding. Nonspecific binding was defined as the amount of ^3[H]-(S)-4-[(ethyl-phenyl-amino)-methyl]-4,5-dihydro-oxazol-2-ylamine bound in the presence of 10 μM unlabeled ligand. All compounds were tested at a broad range of concentrations (10 μM to 10 μM) in duplicates. […] The 96 deep well plates were incubated for 1 hr at 4° C. Incubations were terminated by rapid filtration through Unifilter-96 plates (Packard Instrument Company) and glass filters GF/C (Perkin Elmer) presoaked for 1 hr in polyethylenimine (0.3%) and washed 3 times with 1 ml of cold binding buffer. After addition of 45 μl of Microscint 40 (PerkinElmer) the Unifilter-96 plate was sealed and after 1 hr the radioactivity counted using a TopCount Microplate Scintillation Counter (Packard Instrument Company).

For another experiment, the target named is rat TAAR1 (Rattus norvegicus (Rat), UniProt Q923Y9). Description: Radioligand binding assay on rat TAAR1. The settings on record: rat TAAR1, membranes of stably transfected HEK-293 cells; second value of cell mouse/rat. The procedure:
as §1, §2, §3
Radioligand Binding Assay on Rat TAAR1
as §4
as §5, with “expressing rat” for “expressing mouse”, “curve. […]” for “curve. The TAAR1 radioligand ^3[H]-(S)-4-[(ethyl-phenyl-amino)-methyl]-4,5-dihydro-oxazol-2-ylamine (described in WO 2008/098857) was used at a concentration equal to the calculated Kd value, that was usually around 0.7 nM, resulting in the binding of approximately 0.5% of the radioligand and a specific binding representing approximately 70% of the total binding.”, “(10 pM” for “(10 μM”

mouse TAAR1, sequence (Q923Y8 whole entry): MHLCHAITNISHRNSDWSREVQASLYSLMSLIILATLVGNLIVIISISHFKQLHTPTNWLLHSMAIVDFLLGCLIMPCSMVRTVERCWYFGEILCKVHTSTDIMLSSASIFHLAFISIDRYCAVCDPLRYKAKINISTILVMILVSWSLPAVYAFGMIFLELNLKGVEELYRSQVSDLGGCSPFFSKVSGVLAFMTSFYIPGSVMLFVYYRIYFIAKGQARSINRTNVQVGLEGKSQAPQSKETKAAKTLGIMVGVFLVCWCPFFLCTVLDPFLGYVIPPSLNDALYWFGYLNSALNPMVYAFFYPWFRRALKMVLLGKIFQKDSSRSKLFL
rat TAAR1, sequence (Q923Y9 whole entry): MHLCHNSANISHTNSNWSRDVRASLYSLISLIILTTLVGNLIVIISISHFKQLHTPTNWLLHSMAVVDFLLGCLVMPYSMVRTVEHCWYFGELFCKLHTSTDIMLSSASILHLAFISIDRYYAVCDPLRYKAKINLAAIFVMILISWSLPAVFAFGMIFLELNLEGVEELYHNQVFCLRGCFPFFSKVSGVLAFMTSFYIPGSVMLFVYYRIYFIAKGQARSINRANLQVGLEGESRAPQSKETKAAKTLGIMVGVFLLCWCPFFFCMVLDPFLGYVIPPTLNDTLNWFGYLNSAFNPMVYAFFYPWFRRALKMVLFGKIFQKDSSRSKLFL

On to `NC1=N[C@@H](CCc2ccc(Nc3ccc(C(F)(F)F)cn3)cc2)CO1` [Example 11, {4-[2-((S)-2-Amino-4,5-dihydro-oxazol-4-yl)-ethyl]-phenyl}-(5-trifluoromethyl-pyridin-2-yl)-amine], for which the values for the Ki on mouse TAAR1 and on rat TAAR1 were 0.0002 µM and 0.0004 µM, respectively. For `Cc1cnc(Nc2ccc(CC[C@H]3COC(N)=N3)cc2)nc1` [Example 46, {4-[2-((S)-2-Amino-4,5-dihydro-oxazol-4-yl)-ethyl]-phenyl}-(5-methyl-pyrimidin-2-yl)-amine], in that order: 0.0105 µM and 0.0012 µM. For `N#Cc1cncc(Nc2ccc(CC[C@H]3COC(N)=N3)cc2)n1` [Example 31, 6-{4-[2-((S)-2-Amino-4,5-dihydro-oxazol-4-yl)-ethyl]-phenylamino}-pyrazine-2-carbonitrile], in that order: 0.0133 µM and 0.0059 µM.

Take `NC1=N[C@@H](CCc2ccc(Nc3ccc(C(F)(F)F)cc3)cc2)CO1` [Example 8, (S)-4-{2-[4-(4-Trifluoromethyl-phenylamino)-phenyl]-ethyl}-4,5-dihydro-oxazol-2-ylamine]: the Ki on mouse TAAR1 and on rat TAAR1 was 0.0002 µM throughout. Take `Cc1ccc(Nc2ccc(CC[C@H]3COC(N)=N3)cc2)cc1` [Example 14, (S)-4-(4-(p-Tolylamino)phenethyl)-4,5-dihydrooxazol-2-amine]: the Ki (commonly a dissociation constant, usually derived from enzyme kinetics or from competition with a known ligand) at mouse TAAR1 turned out to be 0.0008 µM; at rat TAAR1 it was 0.0001 µM. For `NC1=N[C@@H](CCc2ccc(NC(c3cc(Cl)cc(Cl)c3)C(F)(F)F)cc2)CO1` (stereo partly drawn) [Example 69, (4S)-4-(4-(1-(3,5-Dichlorophenyl)-2,2,2-trifluoroethylamino)phenethyl)-4,5-dihydrooxazol-2-amine], in that order: 0.0355 µM and 0.0407 µM.

With `C[S+]([O-])c1cnc(Nc2ccc(CC[C@H]3COC(N)=N3)cc2)nc1` (stereo partly drawn) [Example 75, (4S)-4-(4-(5-(Methylsulfinyl)pyrimidin-2-ylamino)phenethyl)-4,5-dihydrooxazol-2-amine], the Ki on mouse TAAR1 amounted to 0.48 µM; on rat TAAR1, 0.104 µM. For `NC1=N[C@@H](CCc2ccc(Nc3cc(F)ccn3)cc2)CO1` [Example 22, {4-[2-((S)-2-Amino-4,5-dihydro-oxazol-4-yl)-ethyl]-phenyl}-(4-fluoro-pyridin-2-yl)-amine], in that order: 0.0034 µM and 0.0002 µM. With `Cc1cc(Nc2ccc(CC[C@H]3COC(N)=N3)cc2)ncn1` [Example 24, {4-[2-((S)-2-Amino-4,5-dihydro-oxazol-4-yl)-ethyl]-phenyl}-(6-methyl-pyrimidin-4-yl)-amine], the results for the Ki at mouse TAAR1 and on rat TAAR1 were 0.0182 µM and 0.0013 µM, respectively. As to `NC1=N[C@@H](CCc2ccc(Nc3ccncn3)cc2)CO1` [Example 35, (S)-4-(4-(Pyrimidin-4-ylamino)phenethyl)-4,5-dihydrooxazol-2-amine hydrochloride], the Ki was determined as 0.0551 µM on mouse TAAR1 and 0.0023 µM on rat TAAR1. For `Cc1cc(Nc2ccc(CC[C@H]3COC(N)=N3)cc2)c2ncccc2c1` [Example 4, (S)-4-(4-(6-Methylquinolin-8-ylamino)phenethyl)-4,5-dihydrooxazol-2-amine], in that order: 0.0021 µM and 0.0006 µM. For `NC1=N[C@@H](CCc2ccc(Nc3ccc(Cl)cc3F)cc2)CO1` [Example 7, (S)-4-{2-[4-(4-Chloro-2-fluoro-phenylamino)-phenyl]-ethyl}-4,5-dihydro-oxazol-2-ylamine], in that order: 0.0017 µM and 0.0001 µM. `CCCc1cnc(Nc2ccc(CC[C@H]3COC(N)=N3)cc2)nc1` [Example 49, {4-[2-((8)-2-Amino-4,5-dihydro-oxazol-4-yl)-ethyl]-phenyl}-(5-propyl-pyrimidin-2-yl)-amine]: the Ki on mouse TAAR1 was determined as 0.0007 µM; at rat TAAR1 it was 0.0006 µM. For `NC1=N[C@@H](CCc2ccc(Nc3ncc(F)cn3)cc2)CO1` [Example 20, {4-[2-((S)-2-Amino-4,5-dihydro-oxazol-4-yl)-ethyl]-phenyl}-(5-fluoro-pyrimidin-2-yl)-amine], in that order: 0.0224 µM and 0.004 µM.

For `NC1=N[C@@H](CCc2ccc(Nc3ncc(Cl)cn3)cc2)CO1` [Example 18, {4-[2-((S)-2-Amino-4,5-dihydro-oxazol-4-yl)-ethyl]-phenyl}-(5-chloro-pyrimidin-2-yl)-amine], the Ki at mouse TAAR1 is 0.0012 µM; at rat TAAR1, 0.0002 µM. With `CC(C)(C)c1cnc(Nc2ccc(CC[C@H]3COC(N)=N3)cc2)nc1` [Example 57, (S)-4-(4-(5-tert-Butylpyrimidin-2-ylamino)phenethyl)-4,5-dihydrooxazol-2-amine], the Ki at mouse TAAR1 came to 0.0005 µM; on rat TAAR1 it was 0.0004 µM. For `COc1cnc(Nc2ccc(CC[C@H]3COC(N)=N3)cc2)nc1` [Example 38, {4-[2-((8)-2-Amino-4,5-dihydro-oxazol-4-yl)-ethyl]-phenyl}-(5-methoxy-pyrimidin-2-yl)-amine], in that order: 0.007 µM and 0.0007 µM. For `NC1=N[C@@H](CCc2ccc(NC(c3ccc(Br)cn3)C(F)(F)F)cc2)CO1` (stereo partly drawn) [Example 62, (S)-4-(2-{4-[1-(5-Bromo-pyridin-2-yl)-2,2,2-trifluoro-ethylamino]-phenyl}-ethyl)-4,5-dihydro-oxazol-2-ylamine], in that order: 0.0623 µM and 0.0132 µM.

On to `NC1=N[C@@H](CCc2ccc(Nc3cc(C(F)(F)F)cc(Cl)n3)cc2)CO1` [Example 42, {4-[2-((S)-2-Amino-4,5-dihydro-oxazol-4-yl)-ethyl]-phenyl}-(6-chloro-4-trifluoromethyl-pyridin-2-yl)-amine], for which the values for the Ki on mouse TAAR1 and on rat TAAR1 were 0.0008 µM and 0.0016 µM, respectively. On to `N#Cc1ccc(N(c2ccc(CC[C@H]3COC(N)=N3)cc2)c2ccc(C#N)cn2)nc1` [Example 12, (S)-6,6′-(4-(2-(2-Amino-4,5-dihydrooxazol-4-yl)ethyl)phenylazanediyl)dinicotinonitrile], for which the Ki on mouse TAAR1 was found to be 0.111 µM.
